Article PMC6662714, “High-throughput identification of peptide agonists against GPCRs by co-culture of mammalian reporter cells and peptide-secreting yeast cells using droplet microfluidics” (Scientific Reports, 2019)

How the values were obtained:
[1] = tested on: human GLP1R (hGLP1R); assay: Functional cell-based assay, adherent hGLP1R/NLuc-293 reporter cells (NanoLuc luminescence); settings: DMEM, 37 °C, 12 h
Procedure: (§1) To construct a reporter cell line that constitutively produces human GLP1R (hGLP1R) and inducibily secretes NanoLuc in response to the activation of hGLP1R, pIRES-hGLP1R, and pCRE-NLuc[13], were co-transfected in HEK293 cells (European Collection of Cell Culture, Salisbury, UK) using Xfect™ (Clontech Laboratries, Inc., Mountain View, CA, USA). The transfected cells were cultured in Dulbecco’s Modified Eagle Medium (DMEM) (Nacalai Tesque, Kyoto, Japan) containing 10% FBS (GE Healthcare, Little Chalfont, UK), 1% penicillin-streptomycin (Sigma-Aldrich, St. Louis, MO, USA), 400 µg/mL G418 (Nacalai Tesque), and 0.1 µg/mL puromycin (Wako Pure Chemical Industries, Osaka, Japan). […]
To perform a functional assay using the adherent hGLP1R/NLuc-293 cell line, hGLP1R/NLuc-293 cells were seeded at 5 × 10^3 cells/100 µL in a 96-well plate (Thermo Fisher Scientific) and cultured at 37 °C for 24 h. […] Afterwards, 50 µL luciferase substrate (Nano-Glo™ Luciferase Assay System, Promega, Fitchburg, WI, USA) was added, and luminescence intensity was measured using a Fluoroskan Ascent™ Microplate Fluorometer (Thermo Fisher Scientific).
To verify the activities of the identified Ex4 variants, we prepared variant peptides using E. coli as follows. […] The calibration curve used for quantification was obtained with standard FLAG peptides (Wako Pure Chemical Industries).

[2] = tested on: human GLP1R (hGLP1R); assay: Functional cell-based assay, adherent hGLP1R/LacZ-293 reporter cells (LacZ fluorescence); settings: DMEM, 50 µM CMFDG, 37 °C, 12 h
Procedure: as §1, with “Japan). The reporter cells were selected to establish a stable cell line harboring GLP1R and secretory NanoLuc genes (hGLP1R/NLuc-293)[13].” for “Japan).”
To perform a functional assay using the adherent hGLP1R/LacZ-293 cell line, hGLP1R/LacZ-293 cells were seeded at 5 × 10^3 cells/100 µL in a 96-well plate (Thermo Fisher Scientific) and cultured at 37 °C for 24 h. […] After 12 h incubation at 37 °C, fluorescence intensity was measured using Fluoroskan Ascent™ Microplate Fluorometer.

[3] = tested on: human GLP1R (hGLP1R); assay: Functional cell-based assay, floating hGLP1R/LacZ-293 cells; settings: 30 nM authentic Ex4, floating cells 5 × 10^3 cells/50 µL, RPMI-1640, 50 µM CMFDG, 37 °C, 12 h; n = 3; Fig. 3a
Procedure: as §1, with “Japan). The reporter cells were selected to establish a stable cell line harboring GLP1R and secretory NanoLuc genes (hGLP1R/NLuc-293)[13]. To construct a reporter cell line that secretes LacZ in response to the activation of hGLP1R, pIRES-hGLP1R[13], and pCRE-LacZ were co-transfected in HEK293 cells, and a reporter cell line, hGLP1R/LacZ-293, was selected using a medium containing G418 and puromycin.” for “Japan).”
An assay using floating hGLP1R/LacZ-293 was carried out using the following procedure. […] Immediately after the modification, the solution was placed in a 96-well plate and incubated at 37 °C for 12 h, and fluorescence intensity was measured.

[4] = tested on: human GLP1R (hGLP1R); assay: Co-culture of floating hGLP1R/LacZ-293 and ligand-secreting yeast cells; format: cell-based; settings: co-culture with yeast cells secreting Ex4 (4.5 × 10^5 cells/50 µL) vs WT yeast, RPMI-1640, 50 µM CMFDG, 37 °C, 12 h, n = 3, Fig. 3b
Source text: Saccharomyces cerevisiae BY4742 [MATα, his3Δ1, leu2Δ0, lys2Δ0, ura3Δ0] (GE Healthcare) was used for the secretion of a hGLP1R agonist, Exendin-4 (Ex4, produced by the Gila monster[31]) and randomized Ex4 variants. To construct an Ex4-secretory yeast, pULS-Ex4[13] was transformed into the BY4742 strain using the Frozen-EZ Yeast Transformation-II Kit (Zymo Research, Orange, CA, USA). Yeast cells secreting randomized Ex4 variants were constructed using gap repair cloning[34] as follows. pULS plasmid[13] was digested with EcoRI and KpnI to obtain a linear vector fragment. Insert DNA fragments encoding Ex4 genes whose two N-terminal amino acids were randomized were PCR-amplified from pULS-Ex4 using the following primers: 5′-[…]-3′ and 5′-[…]-3′. The BY4742 strains were transformed using the linear vector fragments (500 ng) and the randomized insert fragments (250 ng) for gap repair cloning. […]
Co-culture of floating hGLP1R/LacZ-293 and ligand-secreting yeast cells was carried out using the following procedure. […] Immediately after the modification, the solution was incubated in a 96-well plate at 37 °C for 12 h, and fluorescence intensity was measured.

[5] = tested on: human GLP1R (hGLP1R); assay: Functional cell-based assay in droplets (droplet microfluidics), hGLP1R/LacZ-293; settings: 6 h, Fig. 4b; for fluorescence intensity of droplets: DMEM, 50 µM CMFDG, 30 °C, at least 70 droplets
Source text: A single-inlet microfluidic device was designed according to previous reports[39],[40] (Fig. S1). In brief, polydimethylsiloxane (PDMS, Sylgard 184, Dow Corning Corp, Midland, MI, USA) and its cross-linker were mixed at a ratio of 10:1 (w/w), degassed, poured onto a master mold, and cured. The cured PDMS was peeled from the mold and punched with 0.75 mm biopsy punch (World Precision Instruments, Sarasota, FL, USA). The PDMS slab was bonded to a glass slide by plasma treatment (Plasma Cleaner PDG-32G; Harrick Scientific, Pleasantville, NY, USA), and baked for at least 30 min at 70 °C. The microfluidics device, an air compressor, Mitos P-Pump Basic (Dolomite, Charleston, MA, USA) were connected, and the pressure was set to be about 150 mbar for aqueous phase and about 300 mbar for oil phase. To generate droplets, cell suspension and a carrier phase (FC40 containing 5% (v/v) of the surfactant Pico-Surf1, Dolomite), were pumped into the cross-junction.
As a proof-of-principle experiment, hGLP1R/LacZ-293 was suspended at 5.0 × 10^6 cells/mL in the following media: DMEM, DMEM containing authentic Ex4, DMEM containing WT S. cerevisiae (Yeast-WT), or DMEM containing Ex4-secreting S. cerevisiae (Yeast-Ex4). The concentration of yeast cells was set to be 9.1 × 10^6 cells/mL. CMFDG was added in the media to realize a concentration of 50 µM. After encapsulation, the droplets were incubated at 30 °C for 6 h. Fluorescence intensity of each droplet was calculated by image analysis under a confocal laser scanning fluorescence microscope.

[6] = tested on: GLP1R; settings: cited from earlier work
Source text: To investigate whether the activity of the peptides was not influenced by the post-translational modifications by yeast or differences in secretion efficiencies, WT Ex4 and Ex4 variants fused with an N-terminal FLAG sequence were produced using Escherichia coli. The peptides were purified using anti-FLAG resin, and reacted with enterokinase, which cleaves the peptides after the FLAG sequence to expose free N-terminal of Ex4 peptides. We added the purified WT Ex4 produced by E. coli with or without enterokinase reactions to the hGLP1R/NLuc-293 cells, and observed a significant increase in lumin ...

[7] = 30 nM authentic Ex4 vs 0 nM, mean ± SD (n = 3), two-tailed Student's t-test, Fig. 2a
[8] = culture supernatants of Ex4-secretory yeast (yeast-Ex4) vs WT yeast, n = 3, Fig. 2b

With exendin-4 [Ex4] the “reporter signal (NanoLuc luminescence)” value [1, 7] was “significant reporter signals in both lines”, the “reporter signal (NanoLuc luminescence)” value [1, 8] was “significant reporter signals in both lines” and the “reporter signal (LacZ fluorescence)” value [2, 7] was “significant reporter signals in both lines”. The “reporter signal (LacZ fluorescence)” value [2, 8] was “significant reporter signals in both lines”, the “fluorescence (LacZ reporter)” value [3] was “significant increase in fluorescence” and the “fluorescence (LacZ reporter)” value [4] was “significant increase in fluorescence”. For the same substance, the “overlap of box plots of droplet fluorescence, "Ex4" vs "no ligand"” value ([5]; 30 nM authentic Ex4, 30 °C) was “partially overlapped”, the “fluorescence intensity of droplets” value ([5]; 30 nM authentic Ex4 vs no ligand, two-tailed Student's t-test) was “significant increases in fluorescence intensity” and the “fluorescence intensity of droplets” value ([5]; yeast cells secreting Ex4 (9.1 × 10^6 cells/mL) vs Yeast-WT) was “significant increases in fluorescence intensity”. For the same substance, the “agonist strength at GLP1R” value [6] was “very strong agonist”.
